Experiment [1] concerns conscious telemetered dogs. The experiment is described as follows: Systolic blood pressure lowering, oral administration to conscious telemetered dogs. The format is in vivo. Conditions: orally administered at 3 mpk. The text has this: Several examples were studied for systolic blood pressure lowering when orally administered to conscious telemetered dogs at 3 mpk (see Data Table 1).

The test system of experiment [2] is isolated rabbit thoracic aorta preparations. The experiment is described as follows: Vessel relaxation in isolated rabbit thoracic aorta preparations. Conditions: Oryctolagus cuniculus; rabbit aortic rings precontracted with noradrenaline, functional endothelium. The experiment is classed as cell-based. How it is done: The ability of the compounds to induce vasorelaxation was tested in vitro in isolated rabbit thoracic aorta preparations (Wanstall J. C. et al., Br. J. Pharmacol., 134:463-472, 2001). Male New Zealand rabbits were anaesthetized with thiopental-Na (50 mg/kg, iv), sacrificed by exsanguinations and then the thorax was opened and the aorta dissected. Aortic ring preparations (4 mm in length) were set up in physiological salt solution (PSS) at 37° C. in small organ chambers (5 ml). The composition of PSS was (mM): NaCl 130, NaHCO3 14.9, KH2PO4 1.2, MgSO4 1.2, HEPES 10, CaCl2, ascorbic acid […] and glucose 1.1 (95% O2/5% CO2; pH 7.4). Each ring was mounted under 2 g passive tension. Isometric tension was recorded with a Grass transducer (Grass FT03) attached to a BIOPAC MP150 System. Preparations were allowed to equilibrate for 1 h, and then contracted submaximally with noradrenaline (NA, 1 μM) and, when the contraction was stable, acetylcholine (ACh, 10 μM) was added. A relaxant response to ACh indicated the presence of a functional endothelium. […] When a stable precontraction was reached, a cumulative concentration-response curve to either of the vasorelaxant agents was obtained in the presence of a functional endothelium. Each arterial ring was exposed to only one combination of inhibitor and vasorelaxant. […]
Example 2 was evaluated for vessel relaxation.

Experimental findings from patent US8293777B2, “Angiotensin II receptor antagonists” (Merck Sharp & Dohme, Corp., priority 2008, dated 2012) are described below.

For `CCOc1nc2cccc(C(=O)OC(C)OC(=O)[C@@H]3C[C@H](OC)[C@@H](O[N+](=O)[O-])C3)c2n1Cc1ccc(-c2ccccc2-c2nnn[nH]2)cc1` (stereo partly drawn) [Example 2, D1, 1-({[(1R,3S,4S)-3-methoxy-4-(nitrooxy)cyclopentyl]carbonyl}oxy)ethyl 2-ethoxy-1-{[2′-(1H-tetrazol-5-yl)biphenyl-4-yl]methyl}-1H-benzimidazole-7-carboxylate], the “Approximate change in systolic blood pressure” value (“Approximate change” for short) in experiment [1] (1-6 h, 3 mg/kg) is recorded as −15 mm Hg; in experiment [1] (6-12 h, 3 mg/kg), −11 mm Hg; in experiment [1] (12-18 h, 3 mg/kg), −1 mm Hg.
For the compound `CCOc1nc2cccc(C(=O)OC(C)OC(=O)[C@@H]3C[C@H](OC)[C@@H](O[N+](=O)[O-])C3)c2n1Cc1ccc(-c2ccccc2-c2nnn[nH]2)cc1` (stereo partly drawn) [Example 2, D2, 1-({[(1R,3S,4S)-3-methoxy-4-(nitrooxy)cyclopentyl]carbonyl}oxy)ethyl 2-ethoxy-1-{[2′-(1H-tetrazol-5-yl)biphenyl-4-yl]methyl}-1H-benzimidazole-7-carboxylate], the “Approximate change” value in experiment [1] (1-6 h, 3 mg/kg) is listed as −19 mm Hg; in experiment [1] (6-12 h, 3 mg/kg) it was −12 mm Hg; in experiment [1] (12-18 h, 3 mg/kg), −5 mm Hg. The EC50 (in general, the midpoint of the concentration-response curve) in experiment [2] is > 25 µM.
On to `CCCCC(=O)N(Cc1ccc(-c2ccccc2-c2nnn[nH]2)cc1)[C@H](C(=O)O[C@@H](C)OC(=O)[C@@H]1C[C@H](OC)[C@@H](O[N+](=O)[O-])C1)C(C)C` [Example 5, (1S)-1-({[(1R,3S,4S)-3-methoxy-4-(nitrooxy)cyclopentyl]carbonyl}oxy)ethyl N-pentanoyl-N-{[2′-(1H-tetrazol-5-yl)biphenyl-4-yl]methyl}-L-valinate], for which the “Approximate change” value in experiment [1] (1-6 h) was −8 mm Hg; in experiment [1] (6-12 h) it was −2 mm Hg; in experiment [1] (12-18 h), 8 mm Hg.
On the same counts, the results for `CCCCc1nc(Cl)c(C(=O)O[C@H](C)OC(=O)[C@@H]2C[C@H](OC)[C@@H](O[N+](=O)[O-])C2)n1Cc1ccc(-c2ccccc2-c2nnn[nH]2)cc1` [Example 7] are −9 mm Hg, −1 mm Hg and 2 mm Hg.
